Reference: ChEMBL document CHEMBL5214891, “The subgroup of 2'-hydroxy-flavonoids: Molecular diversity, mechanism of action, and anticancer properties” (Bioorg Med Chem, 2021)

Experiments:
[1] = Downregulation of PSA mRNA expression in human LNCaP cells measured after 12 hrs by RT-PCR assay; type: functional, cell-based
[2] = Dissociation constant, pKa of compound; type: physicochemical
[3] = molecular target: 11-beta-hydroxysteroid dehydrogenase 1 (Homo sapiens, UniProt P28845); experiment: Inhibition of human 11beta-HSD1 expressed in HEK-293 cells incubated for 10 mins; type: cell-based, HEK293
11-beta-hydroxysteroid dehydrogenase 1, sequence (P28845 whole entry): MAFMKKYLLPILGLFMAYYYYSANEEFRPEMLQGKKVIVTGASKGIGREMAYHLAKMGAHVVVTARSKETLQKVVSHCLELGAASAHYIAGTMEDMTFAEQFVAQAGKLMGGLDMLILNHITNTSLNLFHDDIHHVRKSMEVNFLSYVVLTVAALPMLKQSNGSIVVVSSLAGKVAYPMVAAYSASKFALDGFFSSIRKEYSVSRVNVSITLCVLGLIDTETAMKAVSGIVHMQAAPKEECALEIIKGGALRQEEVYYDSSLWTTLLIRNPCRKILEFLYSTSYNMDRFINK

Structure (SMILES) | IC50 [1] [µM] | pKa [2] | IC50 [3] [µM]
O=c1c(-c2ccc(O)cc2O)coc2cc(O[C@@H]3O[C@H](CO)[C@@H](O)[C@H](O)[C@H]3O)cc(O)c12 | 18 |  | 
O=C1CC(c2ccccc2O)Oc2ccccc21 (stereo not drawn) [2'-HYDROXY-FLAVANONE] |  | 6.67 | 10
